Columns and labels:
Test in all cases: relative viability (nuclei count vs DMSO), 5 days (fraction); higher = more cells survive
[1] = compound: CCC1=CN=CN=C1N2CCN(CC2)CC3=NC4=C(N3)C=C(C=C4)C(F)(F)F + CC(=O)Nc1cccc(-n2c(=O)n(C3CC3)c(=O)c3c(Nc4ccc(I)cc4F)n(C)c(=O)c(C)c32)c1 [Trametinib] (partner 0.02 µM)
Summary of the method: (§1)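 For relative viability, nuclei counts in treated wells were divided by those in vehicle wells. Lung cancer cell lines had been pin-tool dosed in 1536-well plates the day after seeding and cultured for 5 days, then fixed and stained in one step (final 0.05% Triton X-100, 1% formaldehyde, 1 ug/ml Hoechst) and imaged at 4×. Doses were one drug alone or a fixed anchor-drug dose plus five library-drug doses (not always all listed) in √10 steps, and values are duplicate-plate medians.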

[2] = compound: CCC1=CN=CN=C1N2CCN(CC2)CC3=NC4=C(N3)C=C(C=C4)C(F)(F)F + Nc1nc2[nH]cc(CCc3ccc(C(=O)N[C@@H](CCC(=O)O)C(=O)O)cc3)c2c(=O)[nH]1 [Pemetrexed] (partner 0.2 µM)
Summary of the method: as §1

[3] = compound: CCn1c(-c2nonc2N)nc2cnc(Oc3cccc(NC(=O)c4ccc(OCCN5CCOCC5)cc4)c3)cc21 + CCNC(=O)c1noc(-c2cc(C(C)C)c(O)cc2O)c1-c1ccc(CN2CCOCC2)cc1 [Luminespib] (partner 0.01 µM)
Summary of the method: as §1

[4] = compound: CCn1c(-c2nonc2N)nc2cnc(Oc3cccc(NC(=O)c4ccc(OCCN5CCOCC5)cc4)c3)cc21 + NC(=O)Nc1cc(-c2cccc(F)c2)sc1C(=O)N[C@H]1CCCNC1 [AZD7762] (partner 0.2 µM)
Summary of the method: as §1

| Cell Line | relative viability ([1]; first compound 0.04 µM) | relative viability ([1]; first compound 0.1265 µM) | relative viability ([1]; first compound 0.4 µM) | relative viability ([1]; first compound 1.265 µM) | relative viability ([1]; first compound 4 µM) | relative viability ([2]; first compound 0.04 µM) | relative viability ([2]; first compound 0.1265 µM) | relative viability ([2]; first compound 0.4 µM) | relative viability ([2]; first compound 1.265 µM) | relative viability ([2]; first compound 4 µM) | relative viability ([3]; first compound 0.04 µM) | relative viability ([3]; first compound 0.1265 µM) | relative viability ([3]; first compound 1.265 µM) | relative viability ([3]; first compound 4 µM) | relative viability ([4]; first compound 0.04 µM) | relative viability ([4]; first compound 0.1265 µM) | relative viability ([4]; first compound 0.4 µM) | relative viability ([4]; first compound 1.265 µM) | relative viability ([4]; first compound 4 µM) | relative viability ([3]; first compound 0.4 µM) |
| --- | --- | --- | --- | --- | --- | --- | --- | --- | --- | --- | --- | --- | --- | --- | --- | --- | --- | --- | --- | --- |
| NCI-H358 | 0.126 | 0.173 | 0.171 | 0.127 | 0.142 | 0.159 | 0.193 | 0.176 | 0.151 | 0.167 | 0.667 | 0.302 | 0.535 | 0.198 | 0.517 | 0.56 | 0.329 | 0.293 | 0.337 |  |
| BEN | 1.09 | 1.18 | 0.975 | 0.742 | 0.709 | 0.605 | 0.651 | 0.667 | 0.551 | 0.676 | 0.496 | 0.235 | 0.163 | 0.249 | 0.683 | 0.532 | 0.388 | 0.385 | 0.468 | 0.158 |
| ChaGo-K-1 | 0.93 | 0.894 | 0.821 | 0.869 | 0.859 | 0.253 | 0.261 | 0.275 | 0.258 | 0.262 | 0.586 | 0.691 | 0.48 | 0.454 | 0.978 | 0.867 | 0.738 | 0.596 | 0.581 | 0.706 |
| NCI-H1755 | 0.828 | 0.769 | 0.759 | 0.68 | 0.799 | 0.425 | 0.453 | 0.754 | 0.411 | 0.454 | 0.345 | 0.713 | 0.299 | 0.388 | 0.437 | 0.4 | 0.291 | 0.243 | 0.31 | 0.275 |
| LC-2-ad | 0.976 | 0.814 | 0.938 | 0.921 | 0.871 | 0.272 | 0.266 | 0.283 | 0.289 | 0.292 | 0.937 | 0.801 | 0.568 | 0.752 | 0.882 | 0.79 | 0.57 | 0.368 | 0.281 | 0.715 |
| NCI-H1666 | 0.892 | 0.825 | 0.877 | 0.879 | 0.792 | 0.745 | 0.831 | 0.861 | 0.81 | 0.939 | 1.2 | 1.24 | 0.907 | 0.478 | 0.907 | 0.875 | 0.694 | 0.383 | 0.477 | 1.27 |
| 201T | 0.725 | 0.73 | 0.747 | 0.711 | 0.694 | 0.274 | 0.312 | 0.297 | 0.322 | 0.375 | 1.1 | 1.02 | 1.06 | 1.07 | 0.632 | 0.603 | 0.462 | 0.608 | 0.535 | 1.05 |
| NCI-H1395 | 1.05 | 0.993 | 1.11 |  | 0.96 | 0.862 | 0.754 | 0.896 |  | 0.845 | 0.674 | 0.849 | 0.384 | 0.449 | 0.356 | 0.36 | 0.359 | 0.352 | 0.333 | 0.538 |
| NCI-H23 | 0.405 | 0.409 | 0.396 | 0.375 | 0.385 | 0.579 | 0.755 | 0.615 | 0.646 | 0.558 | 0.225 | 0.242 | 0.21 | 0.215 | 0.453 | 0.277 | 0.229 | 0.115 | 0.151 | 0.217 |
| LU99A | 0.558 | 0.57 | 0.505 | 0.481 | 0.578 | 0.187 | 0.169 | 0.178 | 0.177 | 0.248 | 0.264 | 0.221 | 0.26 | 0.249 | 0.439 | 0.436 | 0.241 | 0.296 | 0.252 | 0.286 |
| NCI-H1437 | 0.539 | 0.42 | 0.421 | 0.423 | 0.438 | 0.296 | 0.295 | 0.306 | 0.35 | 0.224 | 1.25 | 1.23 | 0.897 | 0.766 | 1.13 | 1.08 | 0.718 | 0.625 | 0.642 | 1.11 |
| EKVX | 0.415 | 0.384 | 0.379 | 0.32 | 0.309 | 0.425 | 0.395 | 0.399 | 0.404 | 0.384 | 1.03 | 0.807 | 0.765 | 0.645 | 0.927 | 0.718 | 0.478 | 0.476 | 0.621 | 0.898 |
| NCI-H596 | 0.821 | 0.804 | 0.724 | 0.788 | 0.647 | 0.52 | 0.506 | 0.483 | 0.438 | 0.444 | 1.28 | 1.1 | 0.979 | 0.97 | 1.23 | 0.926 | 0.941 | 0.762 | 0.9 | 1.01 |
| LCLC-97TM1 | 0.195 | 0.164 | 0.183 | 0.238 | 0.2 | 0.161 | 0.152 | 0.153 | 0.194 | 0.173 | 0.923 | 0.728 | 0.882 | 0.856 | 0.273 | 0.425 |  |  | 0.135 | 0.664 |
| NCI-H2170 | 0.946 | 0.911 | 0.873 | 0.777 | 0.851 | 0.265 | 0.266 | 0.291 | 0.256 | 0.263 | 0.344 | 0.453 | 0.478 | 0.474 | 0.763 | 0.74 | 0.749 | 0.577 | 0.478 | 0.926 |
| NCI-H1793 | 0.459 | 0.4 | 0.397 | 0.362 | 0.349 | 0.862 | 0.786 | 0.613 | 0.52 | 0.82 | 0.217 | 0.22 | 0.18 | 0.237 | 0.483 | 0.284 | 0.276 | 0.179 | 0.157 | 0.159 |

From the supplement of paper PMC10307832
